The test system of data set [1] is Rattus norvegicus. The experiment in a line: Hypoglycemic activity in glucose loaded Sprague-Dawley rat assessed as reduction of blood glucose level at 100 mg/kg, po relative to control. Also noted: scale not given: the % may be the effect or the level left. It is filed as functional.
For data set [2], the system named is Rattus norvegicus. The experiment in a line: Narcotic analgesic activity in fasted Sprague-Dawley rat at 240 mg/kg, po measured at 60 mins by D'Amour-Smith tail-flick test relative to control. In kind it is functional.
The test system of data set [3] is Mus musculus. The experiment in a line: Analgesic activity in sc dosed Swiss-Webster mouse assessed as reduction of acetylcholine-induced writhing. It is filed as functional. On the technique in general: In writhing tests, fewer writhes than in controls are read as antinociception.
Data set [4] concerns Rattus norvegicus. In words: Toxicity in Sprague-Dawley rat assessed as tremor at 240 mg/kg, po. It is filed as organism-based. Also noted: dose 240 mg/kg, route oral. The following applies: in vivo.
Data set [5] deals with Rattus norvegicus. The experiment in a line: Hypoglycemic activity in Sprague-Dawley rat assessed as reduction of blood glucose level at 89 mg/kg, po by glucagon-impaired glucose disposal test relative to control. The arrangement: scale not given: the % may be the effect or the level left. It is filed as functional.
In data set [6] the test system is Rattus norvegicus. The experiment in a line: Hypoglycemic activity in Sprague-Dawley rat assessed as reduction of blood glucose level at 100 mg/kg, po by glucagon-impaired glucose disposal test relative to control. It is filed as functional. The arrangement: scale not given: the % may be the effect or the level left.
For data set [7], the system named is Rattus norvegicus. In words: Narcotic analgesic activity in fed Sprague-Dawley rat at 120 mg/kg, sc measured at 30 mins by D'Amour-Smith tail-flick test. In kind it is functional. As to conditions: route subcutaneous. Background: Hot-plate and tail-flick tests time the reaction to a heat stimulus.
The subject of data set [8] is Mus musculus. The experiment in a line: Analgesic activity in Swiss-Webster mouse assessed as reduction of acetylcholine-induced writhing at 75 mg/kg, sc relative to control. The arrangement: scale not given: the % may be the effect or the level left. As to conditions: route subcutaneous. In kind it is functional.
The subject of data set [9] is Rattus norvegicus. The experiment in a line: Hypoglycemic activity in glucose loaded Sprague-Dawley rat assessed as reduction of blood glucose level at 64 mg/kg, po relative to control. In kind it is functional. The arrangement: scale not given: the % may be the effect or the level left.
Data set [10] relates to Rattus norvegicus. In words: Narcotic analgesic activity in fasted Sprague-Dawley rat at 240 mg/kg, po measured at 15 mins by D'Amour-Smith tail-flick test relative to control. It is filed as functional.
Data set [11] relates to Mus musculus. In words: Analgesic activity in Swiss-Webster mouse assessed as reduction of acetylcholine-induced writhing at 50 mg/kg, po relative to control. In kind it is functional. The arrangement: scale not given: the % may be the effect or the level left.
Data set [12] has as its system Rattus norvegicus. In words: Toxicity in Sprague-Dawley rat assessed as convulsion at 240 mg/kg, po. It is filed as organism-based. The arrangement: dose 240 mg/kg, route oral. The following applies: in vivo.
For data set [13], the system named is Rattus norvegicus. In words: Toxicity in Sprague-Dawley rat assessed as rigidity at 240 mg/kg, po. It is filed as organism-based. Also noted: dose 240 mg/kg, route oral. As to conditions: in vivo.
The subject of data set [14] is Rattus norvegicus. In words: Hypoglycemic activity in fasted Sprague-Dawley rat assessed as reduction of blood glucose level at 100 mg/kg, po relative to control. It is filed as functional. The arrangement: scale not given: the % may be the effect or the level left.
Data set [15] relates to Rattus norvegicus. In words: Hypoglycemic activity in glucose loaded Sprague-Dawley rat assessed as reduction of blood glucose level at 89 mg/kg, po relative to control. It is filed as functional. Also noted: scale not given: the % may be the effect or the level left.
In data set [16] the test system is Rattus norvegicus. The experiment in a line: Toxicity in Sprague-Dawley rat assessed as hyperexcitability at 240 mg/kg, po. As to conditions: in vivo. The arrangement: dose 240 mg/kg, route oral. It is filed as organism-based.
Data set [17] relates to Rattus norvegicus. The experiment in a line: Hypoglycemic activity in glucose loaded Sprague-Dawley rat assessed as reduction of blood glucose level at 89 mg/kg, po in presence of microsomal enzyme inhibitor SKF 525-A. It is filed as functional, organism-based. The arrangement: dose 89 mg/kg.
The test system of data set [18] is Mus musculus. The experiment in a line: Analgesic activity in Swiss-Webster mouse assessed as reduction of acetylcholine-induced writhing at 25 mg/kg, sc relative to control. In kind it is functional. The arrangement: scale not given: the % may be the effect or the level left. The following applies: route subcutaneous.
Data set [19] has as its system Rattus norvegicus. In words: Toxicity in Sprague-Dawley rat assessed as tremor at 120 mg/kg, sc. In kind it is organism-based. As to conditions: in vivo. The arrangement: dose 120 mg/kg, route subcutaneous.
The test system of data set [20] is Mus musculus. In words: Toxicity in Swiss-Webster mouse assessed as sedation at 40 mg/kg, sc. It is filed as organism-based. The arrangement: dose 40 mg/kg, route subcutaneous. The following applies: in vivo.
Data set [21] concerns Rattus norvegicus. The experiment in a line: Hypoglycemic activity in Sprague-Dawley rat assessed as reduction of blood glucose level at 88 mg/kg, po by glucagon-impaired glucose disposal test relative to control. It is filed as functional. Also noted: scale not given: the % may be the effect or the level left.
Where [22] appears, read: Mus musculus, Swiss-Webster, sc, read-out: ED50.

Structures are written as SMILES. Activity calls are given as the source filed them. The rule behind the calls is not given here. Where only a bound is given, the exact number is not on record here.

Consider `CCOC(=O)N(CN1[C@@H]2CC[C@@H]1[C@@H](c1cccs1)[C@@H](C(=O)OC)C2)NC(=O)OC`, for which the Activity with Rattus norvegicus [1] was 80%.

As to `COC(=O)[C@H]1C[C@H]2CC[C@H]([C@H]1c1ccccc1)N2C` (stereo in doubt; (+)-5), the Activity in the data set on Rattus norvegicus [2] is on record as 59%; with Rattus norvegicus [4] it was “Toxic”. The ED50 (as a rule, the midpoint of the dose-response relation) in the data set with Mus musculus [3] turned out to be 11 mg/kg.

Turning to `CC(C)OC(=O)[C@H]1C[C@H]2CC[C@H]([C@H]1c1ccccc1)N2C.Cl`, the Activity in the data set on Rattus norvegicus [5] amounted to 28%.

On to `COC(=O)[C@H]1C[C@H]2CC[C@H]([C@H]1c1cccs1)N2Cc1ccccc1`, for which the Activity in the data set on Rattus norvegicus [6] is under 20%; with Rattus norvegicus [7], under 20%; with Mus musculus [8] it was 33%.

On to `COC(=O)[C@H]1C[C@H]2CC[C@H]([C@H]1c1cccs1)N2CCCO.Cc1ccc(S(=O)(=O)O)cc1`, for which the Activity in the data set on Rattus norvegicus [9] is given as 27%; with Rattus norvegicus [10], 92%; in the data set with Mus musculus [11], 33%; with Rattus norvegicus [12] it was “Toxic”; in the data set with Rattus norvegicus [4] it was “Toxic”; with Rattus norvegicus [13] it was “Toxic”.

Turning to `COC(=O)[C@H]1C[C@H]2CC[C@H]([C@H]1c1cccs1)N2CC1CCCO1` (stereo partly drawn), the Activity came to 39% in the data set on Rattus norvegicus [14] and 72% in the data set on Rattus norvegicus [10].

With `CCOC(CN1[C@@H]2CC[C@@H]1[C@@H](c1cccs1)[C@@H](C(=O)OC)C2)OCC`, the Activity in the data set on Rattus norvegicus [14] was 47%; in the data set with Rattus norvegicus [10], 87%; in the data set on Mus musculus [8], 27%.

For the compound `COC(=O)[C@H]1C[C@H]2CC[C@H]([C@H]1c1cccs1)N2CCO.Cl`, the Activity is listed as 72% with Rattus norvegicus [15]; 100% in the data set on Rattus norvegicus [10]; 73% in the data set on Mus musculus [8]; “Toxic” with Rattus norvegicus [12]; “Toxic” in the data set with Rattus norvegicus [13]; “Toxic” in the data set with Rattus norvegicus [16]. Moreover, the result in the data set with Rattus norvegicus [17] was Active.

`CC[N+]12Cc3ccsc3[C@H]3[C@@H](C(=O)OC)C[C@H]1CC[C@H]32`: the Activity in the data set on Rattus norvegicus [6] was under 20%. For the same compound, in the data set with Mus musculus [3] (setting [22]), the ED50 was 3.8 mg/kg.

Consider `CCCCCN1[C@@H]2CC[C@@H]1[C@@H](c1cccs1)[C@@H](C(=O)OCC)C2`, for which the Activity in the data set with Rattus norvegicus [1] worked out at 61%; with Rattus norvegicus [2] it was 65%; in the data set with Mus musculus [8], 13%.

As to `CCCOC(=O)[C@H]1C[C@H]2CC[C@H]([C@H]1c1cccs1)N2C`, the Activity in the data set with Rattus norvegicus [6] is reported as under 20%; with Rattus norvegicus [2] it was under 20%; with Mus musculus [18] it was 27%.

Take `COC(=O)[C@H]1C[C@H]2CC[C@H]([C@H]1c1ccccc1)N2C.Cl` (racemic): the Activity with Rattus norvegicus [7] is listed as under 20%; in the data set with Rattus norvegicus [19] it was “Toxic”; with Mus musculus [20], “Toxic”; in the data set on Rattus norvegicus [21], 24%. Also, the ED50 in the data set with Mus musculus [3] (setting [22]) is 12 mg/kg.

As to `COC(=O)[C@H]1C[C@H]2CC[C@@H](N2)[C@H]1c1cccc(O)c1.Cl`, the Activity in the data set on Rattus norvegicus [2], in the data set with Rattus norvegicus [10] and in the data set with Rattus norvegicus [21] was under 20% throughout. Further, in the data set with Mus musculus [3] (setting [22]), the ED50 was determined as 24 mg/kg.

The values are drawn from ChEMBL document CHEMBL3272053, “(exo, exo)-2-Aryltropane-3-carboxylic esters, hypoglycemic agents with accompanying analgesic activity” (J Med Chem, 1978).
